Source: PubChem BioAssay AID1259407 (Chemical Carcinogenesis Research Information System (CCRIS), 2018)
Calls of active or inactive are those of the source. How the calls were made is not given here.

Test system: CCRIS mutagenicity, Ames/micronucleus/aberration tests
Assay: CCRIS mutagenicity studies
[1] = Test System: AMES SALMONELLA TYPHIMURIUM, Strain/Indicator: TA98, Metabolic Activation: NONE, Method: STANDARD PLATE
[2] = Test System: AMES SALMONELLA TYPHIMURIUM, Strain/Indicator: TA98, Metabolic Activation: NONE, Method: PREINCUBATION
[3] = Test System: AMES SALMONELLA TYPHIMURIUM, Strain/Indicator: TA100, Metabolic Activation: NONE, Method: PREINCUBATION
[4] = Test System: AMES SALMONELLA TYPHIMURIUM, Strain/Indicator: TA1535, Metabolic Activation: NONE, Method: PREINCUBATION
[5] = Test System: AMES SALMONELLA TYPHIMURIUM, Strain/Indicator: TA100, Metabolic Activation: NONE, Method: STANDARD PLATE

O=Nc1ccc(NO)cc1
mutagenic call (End Point: IN VITRO CHROMOSOMAL ABERRATIONS, Test System: CHL CELLS, Metabolic Activation: NONE): active; positive (structural changes) | mutagenic call (End Point: IN VITRO CHROMOSOMAL ABERRATIONS, Test System: CHL CELLS, Metabolic Activation: RAT, LIVER, S-9, SODIUM PHENOBARBITAL AND 5,6-BENZOFLAVONE): active; positive (structural changes) | mutagenic call [1]: active; positive | mutagenic call (Test System: AMES SALMONELLA TYPHIMURIUM, Strain/Indicator: TA98, Metabolic Activation: S-9, PHENOBARBITONE AND BETA-NAPHTHOFLAVONE, Method: STANDARD PLATE): active; positive | mutagenic call (Test System: E. COLI, Strain/Indicator: WP2 UVRA, Metabolic Activation: HAMSTER, LIVER, S-9, AROCLOR 1254, Method: STANDARD PLATE): inactive; negative | mutagenic call (Test System: E. COLI, Strain/Indicator: WP2 UVRA, Metabolic Activation: HAMSTER, LIVER, S-9, Method: STANDARD PLATE): inactive; negative | mutagenic call (Test System: E. COLI, Strain/Indicator: WP2 UVRA, Metabolic Activation: MOUSE, LIVER, S-9, AROCLOR 1254, Method: STANDARD PLATE): inactive; negative | mutagenic call (Test System: E. COLI, Strain/Indicator: WP2 UVRA, Metabolic Activation: MOUSE, LIVER, S-9, Method: STANDARD PLATE): inactive; negative | mutagenic call (Test System: E. COLI, Strain/Indicator: WP2 UVRA, Metabolic Activation: NONE, Method: STANDARD PLATE): inactive; negative | mutagenic call (Test System: E. COLI, Strain/Indicator: WP2 UVRA, Metabolic Activation: RAT, LIVER, S-9, AROCLOR 1254, Method: STANDARD PLATE): inactive; negative | mutagenic call (Test System: E. COLI, Strain/Indicator: WP2 UVRA, Metabolic Activation: RAT, LIVER, S-9, Method: STANDARD PLATE): inactive; negative | mutagenic call (Test System: MOUSE LYMPHOMA, Strain/Indicator: L5178Y (HPRT), Metabolic Activation: NONE, Method: SUSPENSION/PLATE): inactive; negative | mutagenic call (Test System: MOUSE LYMPHOMA, Strain/Indicator: L5178Y (TK+/TK-), Metabolic Activation: NONE, Method: SUSPENSION/PLATE): active; positive | mutagenic call (Test System: UDS RODENT HEPATOCYTES, Strain/Indicator: THY INCORP, Metabolic Activation: NONE, Method: IN VIVO): inactive; negative

Cc1cnc2ccc3c(nc(N[C@@H]4O[C@H](C(=O)O)[C@@H](O)[C@H](O)[C@H]4O)n3C)c2n1
mutagenic call [2]: inactive; negative | mutagenic call (Test System: AMES SALMONELLA TYPHIMURIUM, Strain/Indicator: TA98, Metabolic Activation: RAT, LIVER, S-9, AROCLOR 1254, Method: PREINCUBATION): inactive; negative

CCc1nc(N)nc(N)c1-c1ccc(Cl)cc1
mutagenic call (End Point: IN VITRO CHROMOSOMAL ABERRATIONS, Test System: HUMAN LYMPHOCYTES, Metabolic Activation: NONE): active; positive | mutagenic call (End Point: IN VITRO MICRONUCLEUS, Test System: HAMSTER V79 CELLS, Metabolic Activation: NONE): inactive; negative | mutagenic call (End Point: In vivo chromosomal aberrations, Species: Mouse, Strain/Sex: Swiss/Male, Route: Intraperitoneal): active; positive (at highest dose only) | mutagenic call (End Point: In vivo chromosomal aberrations, Test System: Bone marrow cells, Species: Mouse, Strain/Sex: Swiss/Male, Route: Intraperitoneal): active; positive (chromatid breaks and acentric fragments) | mutagenic call (End Point: In vivo chromosomal aberrations, Test System: Spermatocytes, Species: Mouse, Strain/Sex: Swiss/Male, Route: Intraperitoneal): active; positive (at highest dose only) | mutagenic call (Test System: E.COLI, Strain/Indicator: WP2UVRA/PKM101, Metabolic Activation: NONE, Method: PREINCUBATION): inactive; negative | mutagenic call (Test System: E.COLI, Strain/Indicator: WP2UVRA/PKM101, Metabolic Activation: RAT LIVER S-9, PHENOBARBITAL AND 5,6-BENZOFLAVONE, Method: PREINCUBATION): inactive; negative

O=C(Cl)c1ccccc1[N+](=O)[O-]
mutagenic call (Test System: AMES SALMONELLA TYPHIMURIUM, Strain/Indicator: TA97, Metabolic Activation: HAMSTER, LIVER, S-9, AROCLOR 1254 (10%), Method: PREINCUBATION): active; positive | mutagenic call (Test System: AMES SALMONELLA TYPHIMURIUM, Strain/Indicator: TA97, Metabolic Activation: NONE, Method: PREINCUBATION): active; positive | mutagenic call (Test System: AMES SALMONELLA TYPHIMURIUM, Strain/Indicator: TA97, Metabolic Activation: RAT, LIVER, S-9, AROCLOR 1254 (10%), Method: PREINCUBATION): active; positive | mutagenic call (Test System: AMES SALMONELLA TYPHIMURIUM, Strain/Indicator: TA98, Metabolic Activation: HAMSTER, LIVER, S-9, AROCLOR 1254 (10%), Method: PREINCUBATION): active; positive | mutagenic call (Test System: AMES SALMONELLA TYPHIMURIUM, Strain/Indicator: TA98, Metabolic Activation: RAT, LIVER, S-9, AROCLOR 1254 (10%), Method: PREINCUBATION): active; positive | mutagenic call (Test System: AMES SALMONELLA TYPHIMURIUM, Strain/Indicator: TA98, Metabolic Activation: RAT, LIVER, S-9, KANECHLOR 500, Method: PREINCUBATION): active; positive | mutagenic call (Test System: AMES SALMONELLA TYPHIMURIUM, Strain/Indicator: TA100, Metabolic Activation: HAMSTER, LIVER, S-9, AROCLOR 1254 (10%), Method: PREINCUBATION): active; positive | mutagenic call [3]: active; positive | mutagenic call (Test System: AMES SALMONELLA TYPHIMURIUM, Strain/Indicator: TA100, Metabolic Activation: RAT, LIVER, S-9, AROCLOR 1254 (10%), Method: PREINCUBATION): active; positive | mutagenic call (Test System: AMES SALMONELLA TYPHIMURIUM, Strain/Indicator: TA100, Metabolic Activation: RAT, LIVER, S-9, KANECHLOR 500, Method: PREINCUBATION): active; positive | mutagenic call (Test System: AMES SALMONELLA TYPHIMURIUM, Strain/Indicator: TA1535, Metabolic Activation: HAMSTER, LIVER, S-9, AROCLOR 1254 (10%), Method: PREINCUBATION): inactive; negative | mutagenic call [4]: inactive; negative | mutagenic call (Test System: AMES SALMONELLA TYPHIMURIUM, Strain/Indicator: TA1535, Metabolic Activation: RAT, LIVER, S-9, AROCLOR 1254 (10%), Method: PREINCUBATION): inactive; negative

CC(=O)O[C@H]1[C@@H]2CC(C)(C)CC2=C(C=O)[C@@]2(C=O)C[C@@]12C
mutagenic call [1]: inactive; negative | mutagenic call [5]: inactive; negative | mutagenic call (Test System: AMES SALMONELLA TYPHIMURIUM, Strain/Indicator: TA2637, Metabolic Activation: NONE, Method: STANDARD PLATE): inactive; negative | mutagenic call (Test System: CHINESE HAMSTER V-79, Strain/Indicator: V-79/6-THIOGUANINE (HGPRT), Metabolic Activation: NONE): inactive; negative

CCCCCCCCCCCCO
mutagenic call [2]: inactive; negative | mutagenic call (Test System: AMES SALMONELLA TYPHIMURIUM, Strain/Indicator: TA98, Metabolic Activation: RAT, LIVER, S-9, KC 500, Method: PREINCUBATION): inactive; negative | mutagenic call [3]: inactive; negative | mutagenic call (Test System: AMES SALMONELLA TYPHIMURIUM, Strain/Indicator: TA100, Metabolic Activation: RAT, LIVER, S-9, KC 500, Method: PREINCUBATION): inactive; negative | mutagenic call [4]: inactive; negative | mutagenic call (Test System: AMES SALMONELLA TYPHIMURIUM, Strain/Indicator: TA1535, Metabolic Activation: RAT, LIVER, S-9, KC 500, Method: PREINCUBATION): inactive; negative | mutagenic call (Test System: AMES SALMONELLA TYPHIMURIUM, Strain/Indicator: TA1537, Metabolic Activation: NONE, Method: PREINCUBATION): inactive; negative | mutagenic call (Test System: AMES SALMONELLA TYPHIMURIUM, Strain/Indicator: TA1537, Metabolic Activation: RAT, LIVER, S-9, KC 500, Method: PREINCUBATION): inactive; negative | mutagenic call (Test System: AMES SALMONELLA TYPHIMURIUM, Strain/Indicator: TA1538, Metabolic Activation: NONE, Method: PREINCUBATION): inactive; negative | mutagenic call (Test System: AMES SALMONELLA TYPHIMURIUM, Strain/Indicator: TA1538, Metabolic Activation: RAT, LIVER, S-9, KC 500, Method: PREINCUBATION): inactive; negative | mutagenic call (Test System: E. COLI, Strain/Indicator: WP2 UVRA, Metabolic Activation: NONE, Method: PREINCUBATION): inactive; negative | mutagenic call (Test System: E. COLI, Strain/Indicator: WP2 UVRA, Metabolic Activation: RAT, LIVER, S-9, KC 500, Method: PREINCUBATION): inactive; negative

CCCCNc1snc2ccccc12
mutagenic call [1]: inactive; negative | mutagenic call (Test System: AMES SALMONELLA TYPHIMURIUM, Strain/Indicator: TA98, Metabolic Activation: S-9, Method: STANDARD PLATE): inactive; negative | mutagenic call [5]: inactive; negative | mutagenic call (Test System: AMES SALMONELLA TYPHIMURIUM, Strain/Indicator: TA100, Metabolic Activation: S-9, Method: STANDARD PLATE): inactive; negative | mutagenic call (Test System: AMES SALMONELLA TYPHIMURIUM, Strain/Indicator: TA1535, Metabolic Activation: NONE, Method: STANDARD PLATE): inactive; negative | mutagenic call (Test System: AMES SALMONELLA TYPHIMURIUM, Strain/Indicator: TA1535, Metabolic Activation: S-9, Method: STANDARD PLATE): inactive; negative | mutagenic call (Test System: AMES SALMONELLA TYPHIMURIUM, Strain/Indicator: TA1537, Metabolic Activation: NONE, Method: STANDARD PLATE): inactive; negative | mutagenic call (Test System: AMES SALMONELLA TYPHIMURIUM, Strain/Indicator: TA1537, Metabolic Activation: S-9, Method: STANDARD PLATE): inactive; negative
